Results: patent US20260373155A1, “TRANSDERMALLY- OR TOPICALLY-ADMINISTERED COMPOSITION COMPRISING THIENOPYRIDINE COMPOUND” (GY LIFE SCIENCES CO., LTD., priority 2022, published 2026)
Each block holds one molecule with its values, some of them ahead of it.

Columns and labels:
[1] = Solution stability of the hydrochloride salt with solubilizer or thickener (days without precipitation); assay type: physicochemical; details: 0.3% hydrochloride salt, aqueous phase, room temperature
Protocol: This experiment examined whether a solubilizer or thickener could maintain a stable solution (without solid precipitation due to self-aggregation) of the hydrochloride salt of the thienopyridine compound of Chemical Formula 1 in an aqueous phase at room temperature. Specifically, 0.3% of the hydrochloride salt was dissolved in a water-phase solution composed of water, PEG400, glycerol, propylene glycol, hexanediol, and polysorbate 60 (as per Table 3). It was heated at 80 °C with stirring for 10 minutes for complete dissolution, then cooled to room temperature. 1% (w/w) of urea or polyvinylpyrrolidone (PVP K-30) was tested as a solubilizer by being added to the solution.
Additionally, 2% (w/w) of xanthan gum, carboxymethyl cellulose, or PEG-240/HDI copolymer bis-decyltetradeceth-20 ether was tested as a thickener. Various combinations were also tested. The day on which precipitation first appeared was noted by visual or microscopic observation. The maximum days with no precipitation was recorded. […] Confirmatory mass spectrometry and ^1H-NMR indicated the precipitate was the compound of Chemical Formula 1.

[2] = Comparison of L-menthol with other known transdermal permeation enhancers (AUC∞ of the thienopyridine compound); assay type: in vivo; details: AUC∞ after transdermal administration, component replaced with water, mice, FIG. 3
Protocol: Other reported transdermal permeation enhancers were tested to see how they affect the skin permeability of the thienopyridine compound.
Variants of the Example 1 formulation were created by removing one of the following and replacing it with water: propylene glycol, glycerol, or urea. Each variant was administered transdermally to mice (n=3) as in Experimental Example 2. Blood samples were analyzed to obtain plasma concentration-time profiles and the resulting average AUC∞±SD. These were compared by bar chart (FIG. 3) with the Example 1 formulation (with L-menthol) and Comparative Example 1 (without L-menthol). The asterisk (*) indicates p<0.01 (t-test).

[3] = Transdermal potential: plasma pharmacokinetics via topical, intravenous and intradermal routes in rats; assay type: in vivo, SD rats; details: 5 mpk; for AUC(0-inf) / AUC(0-t) at 24 h / Cmax / Tmax / half-life: rat, 5 mg/kg, male SD rats, phosphate salt form, plasma
Protocol: An experiment was conducted to evaluate the transdermal potential of the thienopyridine compound (API) using 7-week-old male SD rats. Specifically, the same 5 mpk dose of the thienopyridine compound was administered via three routes-transdermal (topical), intravenous (tail vein), and intradermal injections-simultaneously, following the compositions and methods shown in Table 1 (n=3 per group). The plasma concentration of the thienopyridine compound and pharmacokinetic parameters were then measured for each route.
In more detail, in each formulation the thienopyridine compound was used in phosphate salt form (compound:phosphoric acid=1:2.5 equivalents) at a concentration of 0.3 wt % in the carrier solution. For the transdermal formulation, the thienopyridine compound was first dissolved in a carrier solution lacking 3% […]™ EG, and then 3% […]™ EG (Seppic, France) was added with stirring for 3 minutes to impart viscosity. Blood samples were collected via the carotid artery at 0 (negative control sample), 0.03, 0.16, 0.25, 0.5, 1, 2, 4, 6, and 24 hours post-administration, placed into heparinized tubes, and centrifuged (3,000 rpm, 10 minutes). Plasma (13.5 μl) was stored at −20 °C until analyzed by LC-MS/MS within a week. Plasma concentrations of the thienopyridine compound were determined by LC-MS/MS. Each 13.5 μl plasma sample was mixed with 60 μl of acetonitrile containing 1 μg/mL of an internal standard, vortexed, and centrifuged at 6,000 rpm for 15 minutes; 50 μl of the supernatant was then mixed with 50 μl of distilled water for LC-MS/MS analysis. The LC-MS/MS system was an Agilent 1200 Series HPLC (Agilent, Santa Clara, CA) coupled with an AP13200® triple-quadrupole mass spectrometer (Applied Biosystems-SCIEX, Concord, Canada). The mobile phase was 0.1% formic acid in water (A) and acetonitrile (B). Chromatographic separation was achieved on a reverse-phase Atlantis™ T3 column (100×2.1 mm, 3 μm; Waters, Milford, MA) at a flow rate of 0.25 ml/min under a gradient. The LOQ was 9.7 ng/ml, and the correlation coefficient (R) for calibration was 0.997.
Pharmacokinetic parameters were determined by noncompartmental analysis using WinNonlin® (Pharsight, Mountain View, CA). The maximum plasma concentration (Cmax) was taken directly from the plasma concentration-time profile, and time to reach Cmax (Tmax) was recorded. The area under the concentration-time curve from time zero to the last time point (AUC0-24) was calculated by the trapezoidal rule […]. AUC∞ was calculated by summing AUC0-24 and AUC24-∞, the latter obtained by dividing the 24-hour plasma concentration by the terminal elimination rate.

[4] = test system: Src/DDR tyrosine kinase family; details: see U.S. Pat. No. 9,062,066; cited from earlier work
[5] = Sun X et al. 2012; cited from earlier work
[6] = ultraviolet light; Korean Patent No. 10-1478302; cited from earlier work
[7] = Ju Yong Song 2016 thesis; cited from earlier work
[8] = Ju Yong Song 2016 thesis; cited from earlier work; remark: listed apart in the source
[9] = Fowler A J et al. 2019; US 2019-0262323; cited from earlier work
[10] = topical or ocular, topical application

Structure (SMILES): Oc1cccc(Nc2ccnc3cc(-c4cccc(CN5CCOCC5)c4)sc23)c1
maximum days with no precipitation ([1]; thickener 2% PEG-240/HDI copolymer bis-decyltetradeceth-20 ether, solubilizer 1% polyvinylpyrrolidone (k30)): >7 days
maximum days with no precipitation ([1]; thickener 2% PEG-240/HDI copolymer bis-decyltetradeceth-20 ether, solubilizer 1% urea): 6 days
maximum days with no precipitation ([1]; thickener 2% PEG-240/HDI copolymer bis-decyltetradeceth-20 ether, solubilizer none): 6 days
maximum days with no precipitation ([1]; thickener 2% carboxymethyl cellulose, solubilizer 1% polyvinylpyrrolidone (k30)): 1 days
maximum days with no precipitation ([1]; thickener 2% carboxymethyl cellulose, solubilizer 1% urea): 1 days
maximum days with no precipitation ([1]; thickener 2% carboxymethyl cellulose, solubilizer none): 1 days
maximum days with no precipitation ([1]; thickener 2% xanthan gum, solubilizer 1% polyvinylpyrrolidone (k30)): 1 days
maximum days with no precipitation ([1]; thickener 2% xanthan gum, solubilizer 1% urea): 1 days
maximum days with no precipitation ([1]; thickener 2% xanthan gum, solubilizer none): 1 days
maximum days with no precipitation ([1]; thickener none, solubilizer 1% polyvinylpyrrolidone (k30)): 5 days
maximum days with no precipitation ([1]; thickener none, solubilizer 1% urea): 1 days
maximum days with no precipitation ([1]; thickener none, solubilizer none): 1 days

Structure (SMILES): OCC(O)CO [glycerol]
effect on transdermal permeability of the thienopyridine compound [2]: virtually no effect

Structure (SMILES): CC1CCC(C(C)C)C(O)C1 (stereo not drawn) [menthol]
effect on transdermal permeability of the thienopyridine compound [2]: uniquely strong enhancing effect

Now from value to molecule, other results behind:

effect on transdermal permeability of the thienopyridine compound [2]: virtually no effect
Structure (SMILES): CC(O)CO (stereo not drawn) [propylene glycol]

AUC(0-inf) ([3]; intradermal injection): 446 ± 160 ng·h/mL
AUC(0-t) at 24 h ([3]; intradermal injection): 315 ± 197 ng·h/mL
Cmax ([3]; intradermal injection): 40.3 ± 15.7 ng/mL
Tmax ([3]; intradermal injection): 0.65 ± 0.335 h
half-life ([3]; intradermal injection): 499 ± 189 min
AUC(0-inf) ([3]; intravenous (iv)): 619 ± 219 ng·h/mL
AUC(0-t) at 24 h ([3]; intravenous (iv)): 514 ± 222 ng·h/mL
half-life ([3]; intravenous (iv)): 164 ± 109 min
AUC(0-inf) [3, 10]: 49.4 ± 37.7 ng·h/mL
AUC(0-t) at 24 h [3, 10]: 41.7 ± 8.84 ng·h/mL
Cmax [3, 10]: 10.4 ± 13.5 ng/mL
Tmax [3, 10]: 1.38 ± 1.75 h
half-life [3, 10]: 328 ± 137 min
transdermal absorption relative to intravenous or intradermal administration ([3]; topical vs intravenous or intradermal, rats): about one-tenth
Structure (SMILES): Oc1cccc(Nc2ccnc3cc(-c4cccc(CN5CCOCC5)c4)sc23)c1 [thienopyridine compound, 3-[[2-[3-(4-morpholinylmethyl)phenyl]thieno[3,2-b]pyridin-7-yl]amino]phenol]
inhibition of kinase activity [4]: strongly inhibits
anti-inflammatory and anti-scarring activities, repair of damaged skin tissue [5]: exhibits anti-inflammatory and anti-scarring activities and promotes the repair of damaged skin tissue
anti-aging activity, wrinkle formation [6]: suppresses wrinkle formation
suppression of histamine-induced pruritus [7]: suppresses histamine-induced pruritus
suppression of SLIGRL-NH2-induced pruritus [8]: effectively suppresses
progression of degenerative brain diseases [9]: suppress the progression of degenerative brain diseases

effect on transdermal permeability of the thienopyridine compound [2]: virtually no effect
Structure (SMILES): NC(N)=O [urea]
